In PMC8124228, “New Hybrids Based on Curcumin and Resveratrol: Synthesis, Cytotoxicity and Antiproliferative Activity against Colorectal Cancer Cells” (Molecules, 2021):
Where two headings read alike, the source gives them in different places.

Tests used:
[1] = system: SW480 human colon adenocarcinoma cells; assay: Sulforhodamine B (SRB) cytotoxicity assay, SW480; assay type: cell-based; conditions: for SI (selectivity index): IC50 CHO-K1 / IC50 SW480; for IC50: Homo sapiens, SRB, mean ± SE
Procedure: (§1) To determine the cytotoxic effect of the synthesized hybrids, they were evaluated against SW480 human colon adenocarcinoma cells, its metastatic derivative SW620 and the non-malignant CHO-K1 cell line, through the sulforhodamine B assay. In this experiment, 5-FU was also included as the reference drug, as well as the parental subunits (curcumin and resveratrol) and the equimolar mixture of these. Cytotoxicity was reported as 50% inhibitory concentration (IC50 values).
(§2) Biological assays were performed using an adenocarcinoma colon cancer cell line (SW480), its metastatic derivative (SW620) and non-malignant cells (CHO-K1). These were obtained from The European Collection of Authenticated Cell Cultures (ECACC, England) and maintained in Dulbecco’s Modified Eagle Medium, supplemented with 10% heat-inactivated (56 °C) horse serum, 1% penicillin/streptomycin and 1% non-essential amino acids (Gibco Invitrogen, Carlsbad, USA). For all experiments, horse serum was reduced to 3%, and the medium was supplemented with […], 5 ng/mL selenium and […] (ITS-defined medium; Gibco, Invitrogen, Carlsbad, CA, USA).
(§3) Cytotoxicity of the synthesized hybrids, lead and reference compounds was evaluated through Sulforhodamine B (SRB) assay, a colorimetric test that is based on staining of total cellular protein of adherent cells. Cells were seeded to a final density of 20,000 cells/well in 96-well tissue culture plates and incubated at 37 °C in a humidified atmosphere at 5% CO2. All cultures were allowed to grow for 24 h, and afterward they were treated with DMSO (vehicle control 1%) or increasing concentrations (0.01–200 µM) of the synthesized hybrids, as well as curcumin and resveratrol (lead compounds), the equimolar mixture of these and 5-fluorouracil (5-FU; the standard drug). After treatment, cells were fixed with trichloroacetic acid (50% v/v) (MERCK) for a period of 1 h at 4 °C. Cell proteins were determined by staining with 0.4% (w/v) SRB (Sigma-Aldrich, United States), and then they were washed with 1% acetic acid for the removal of unbound SRB and left for air-drying. Protein bound SRB was solubilized in 10 mM Tris-base and the absorbance was measured at 492 nm in a microplate reader (Mindray MR-96A). All experiments were performed at least in triplicate.

[2] = system: SW620 cells (metastatic derivative of SW480); assay: Sulforhodamine B (SRB) cytotoxicity assay, SW620; assay type: cell-based, human; conditions: for SI (selectivity index): IC50 CHO-K1 / IC50 SW620; for IC50: Homo sapiens, SW-620, SRB, mean ± SE
Procedure: as §1, §2, §3

[3] = system: non-malignant CHO-K1 cell line; assay: Sulforhodamine B (SRB) cytotoxicity assay, non-malignant cells; assay type: cell-based; conditions: Cricetulus griseus, mean ± SE
Procedure: as §1, §2, §3

SW620 cell line = assay: Antiproliferative activity (SRB, 2-8 days), SW620; assay type: cell-based, human; conditions: for viability at 10 µM / viability at 160 µM: Homo sapiens, vehicle control = 100%, read-out: Viability (%) ± SE; for viability at 10 µM: SW620, 10 µM; for viability at 160 µM: SW620, 160 µM
Procedure: With the aim of testing the antiproliferative effect of the most cytotoxic and selective hybrids (3e and 3i for SW480 and 3a, 3e and 3k for SW620), they were analyzed through a longer period. According to the results in comparison with the control, it was observed that the activity was time- and concentration-dependent, as evidenced by the decrease in cell viability in the highest concentrations (Table 2). […] Similar results were presented in a previous investigation by Herrera-R et al. (2018), reporting the antiproliferative effect and morphological changes in SW480 cells after treatment with different hybrids using a stilbene moiety, which highlights the potential of this scaffold in the approach to design molecules with potential activity against CRC.
Briefly, cells were seeded to a final density of 2500 cells/well in 96-well tissue culture plates and incubated in the same conditions described for cytotoxicity. […] Culture media was replaced every 48 h. After each incubation time, cells were fixed, stained and read as previously described for this technique.

Row | melting point [°C] | SMILES | SI (selectivity index) ([1]; 24 h) | SI (selectivity index) ([1]; 48 h) | SI (selectivity index) ([2]; 24 h) | SI (selectivity index) ([2]; 48 h) | IC50 ([3]; 24 h) [µM] | IC50 ([3]; 48 h) [µM] | IC50 ([1]; SW480, 24 h, 24 h) [µM] | IC50 ([1]; SW480, 48 h, 48 h) [µM] | IC50 ([2]; 24 h) [µM] | IC50 ([2]; 48 h) [µM] | viability at 10 µM (SW620 cell line; SW-620, 48 h, day 2) [%] | viability at 160 µM (SW620 cell line; SW-620, 48 h, day 2) [%] | viability at 10 µM (SW620 cell line; SW-620, 96 h, day 4) [%] | viability at 160 µM (SW620 cell line; SW-620, 96 h, day 4) [%] | viability at 10 µM (SW620 cell line; SW-620, 144 h, day 6) [%] | viability at 160 µM (SW620 cell line; SW-620, 144 h, day 6) [%] | viability at 10 µM (SW620 cell line; SW-620, 192 h, day 8) [%] | viability at 160 µM (SW620 cell line; SW-620, 192 h, day 8) [%] | reduction in viability (SW620 cell line; SW620, after two days of treatment, concentrations higher than 10 µM)
1 | – | COc1cc(/C=C/C(=O)CC(=O)/C=C/c2ccc(O)c(OC)c2)ccc1O [Curcumin] | 0.24 | 0.40 | 0.12 | 1.63 | – | – | – | – | – | – | – | – | – | – | – | – | – | – | –
2 | 119 to 120 | COc1cc(/C=C/C(=O)c2ccc(/C=C/c3ccc(O)cc3)cc2)ccc1O [Hybrid 3a, (E)-3-(4-Hydroxy-3-methoxyphenyl)-1-(4-((E)-4-hydroxystyryl)phenyl)prop-2-en-1-one] | 1.28 | 0.54 | 0.74 | – | 122 ± 15.5 | 51.6 ± 10.5 | 96 ± 2.76 | 95.1 ± 7.02 | 166 ± 11.8 | 20.2 ± 1.21 | 71.9 ± 1.9 | 16.1 | 10.7 ± 4.7 | 0 | 2.5 ± 0.5 | 0 | 0.2 ± 0.3 | 0 | –
3 | 187 to 190 | COc1ccc(/C=C/c2ccc(C(=O)/C=C/c3ccc(O)c(OC)c3)cc2)cc1 [Hybrid 3b, (E)-3-(4-hydroxy-3-methoxyphenyl)-1-(4-((E)-4-methoxystyryl)phenyl)prop-2-en-1-one] | – | – | – | – | – | – | – | – | – | – | – | – | – | – | – | – | – | – | –
4 | 227 to 230 | COc1cc(/C=C/C(=O)c2ccc(/C=C/c3ccc([N+](=O)[O-])cc3)cc2)ccc1O [Hybrid 3c, (E)-3-(4-hydroxy-3-methoxyphenyl)-1-(4-((E)-4-nitrostyryl)phenyl)prop-2-en-1-one] | >100 | >15 | – | – | > 3000 | > 3000 | 27.5 ± 2 | > 200 | > 3000 | > 3000 | – | – | – | – | – | – | – | – | –
5 | 63 to 65 | COc1cc(/C=C/C(=O)c2ccc(/C=C/c3cccc(OC)c3OC)cc2)ccc1O [Hybrid 3d, (E)-1-(4-((E)-2,3-Dimethoxystyryl)phenyl)-3-(4-hydroxy-3-methoxyphenyl)prop-2-en-1-one] | 0.91 | 0.49 | 0.44 | 0.48 | 31 ± 2.93 | 12.4 ± 3.41 | 34.1 ± 3.92 | 25.2 ± 3.54 | 70.5 ± 3.8 | 26.1 ± 4.24 | – | – | – | – | – | – | – | – | –
6 | 47 to 51 | COc1ccc(OC)c(/C=C/c2ccc(C(=O)/C=C/c3ccc(O)c(OC)c3)cc2)c1 [Hybrid 3f, (E)-1-(4-((E)-2,5-Dimethoxystyryl)phenyl)-3-(4-hydroxy-3-methoxyphenyl)prop-2-en-1-one] | 1.33 | 0.27 | 2.36 | 0.86 | 112 ± 15.8 | 23.9 ± 4.01 | 84.4 ± 5.45 | 88.6 ± 1.84 | 47.4 ± 10.5 | 27.6 ± 4.99 | – | – | – | – | – | – | – | – | –
7 | 87 to 90 | COc1cc(/C=C/C(=O)c2ccc(/C=C/c3c(OC)cccc3OC)cc2)ccc1O [Hybrid 3g, (E)-1-(4-((E)-2,6-Dimethoxystyryl)phenyl)-3-(4-hydroxy-3-methoxyphenyl)prop-2-en-1-one] | 11.1 | 0.83 | 2.82 | 1.17 | 95 ± 1.67 | 32.4 ± 5.16 | 8.55 ± 2.47 | 39.1 ± 5.68 | 33.7 ± 4.2 | 27.6 ± 5.21 | – | – | – | – | – | – | – | – | –
8 | 49 to 51 | COc1cc(/C=C/c2ccc(C(=O)/C=C/c3ccc(O)c(OC)c3)cc2)cc(OC)c1 [Hybrid 3h, (E)-1-(4-((E)-3,5-Dimethoxystyryl)phenyl)-3-(4-hydroxy-3-methoxyphenyl)prop-2-en-1-one] | 2.06 | 0.93 | 1.60 | 1.08 | 97.4 ± 2.62 | 23.2 ± 4.07 | 47.2 ± 8.39 | 24.9 ± 1.65 | 61 ± 12.8 | 21.4 ± 3.29 | – | – | – | – | – | – | – | – | –
9 | 142 to 146 | COc1cc(/C=C/C(=O)c2ccc(/C=C/c3ccc(O)c(OC)c3)cc2)ccc1O [Hybrid 3j, (E)-3-(4-Hydroxy-3-methoxyphenyl)-1-(4-((E)-4-hydroxy-3-methoxystyryl)phenyl)prop-2-en-1-one] | 5.28 | 0.59 | 1.50 | 0.84 | 42.1 ± 4.85 | 24.3 ± 5.21 | 7.98 ± 1.53 | 41.1 ± 7.8 | 28.1 ± 4.27 | 28.8 ± 4.57 | – | – | – | – | – | – | – | – | –
10 | 74 to 77 | COc1cc(/C=C/C(=O)c2ccc(/C=C/c3cc(OC)c(OC)c(OC)c3)cc2)ccc1O [Hybrid 3k, (E)-3-(4-Hydroxy-3-methoxyphenyl)-1-(4-((E)-3,4,5-trimethoxystyryl)phenyl)prop-2-en-1-one] | 0.84 | 0.34 | 3.65 | – | 74.6 ± 4.2 | 29.4 ± 2.29 | 88.5 ± 4.58 | 85.8 ± 1.27 | 20.4 ± 2.43 | 11.8 ± 1.2 | 56.1 ± 4 | 2.4 ± 0.7 | 12.1 | 0 | 1.9 ± 0.8 | 0 | 0.1 ± 0.1 | 0 | significant reduction in viability
11 | 86 to 88 | COc1cc(/C=C/C(=O)c2ccc(/C=C/c3cc(OC)c(O)c(OC)c3)cc2)ccc1O [Hybrid 3l, (E)-1-(4-((E)-4-Hydroxy-3,5-dimethoxystyryl)phenyl)-3-(4-hydroxy-3-methoxyphenyl)prop-2-en-1-one] | 1.42 | 0.48 | 2.63 | 0.83 | 90 ± 8.55 | 24.8 ± 5.53 | 63.5 ± 8.16 | 51.8 ± 5.85 | 34.2 ± 5.09 | 29.8 ± 3.68 | – | – | – | – | – | – | – | – | –
12 | – | O=c1[nH]cc(F)c(=O)[nH]1 [Hybrid 5-FU, 5-fluorouracil, reference compound] | 0.35 | 0.99 | 0.59 | 0.96 | – | – | – | – | – | – | – | – | – | – | – | – | – | – | –
13 | – | Oc1ccc(/C=C/c2cc(O)cc(O)c2)cc1 [Resveratrol] | 0.77 | 0.52 | 0.22 | 0.45 | 118 ± 8.54 | 64 ± 8.92 | 154 ± 10.6 | 123 ± 4.48 | 549 ± 38.5 | 143 ± 4.03 | – | – | – | – | – | – | – | – | –
